In ChEMBL document CHEMBL1201862, “PubChem BioAssay data set” (2004):
Calls of active or inactive are those of the source.

How the values were obtained:
Protein Wnt-3a = Protein Wnt-3a (Mus musculus, UniProt P27467); experiment: SAR analysis of small molecule antagonists of Gli-SUFU in a Wnt3a luminescent reporter assay.; assay type: functional
Paired box protein Pax-8 = Paired box protein Pax-8 (Homo sapiens, UniProt Q06710); experiment: PAX8 transcriptional activity inhibition in RMG-I – RMG-I cells, luciferase, cherry-pick, dose response (AID 687027); assay type: functional, cell-based;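 note: luciferase reporter driven by Pax8 target thyroperoxidase promoter measured by SteadyGlo luminescence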
Chain of Paired box protein Pax-8 (Q06710 whole entry): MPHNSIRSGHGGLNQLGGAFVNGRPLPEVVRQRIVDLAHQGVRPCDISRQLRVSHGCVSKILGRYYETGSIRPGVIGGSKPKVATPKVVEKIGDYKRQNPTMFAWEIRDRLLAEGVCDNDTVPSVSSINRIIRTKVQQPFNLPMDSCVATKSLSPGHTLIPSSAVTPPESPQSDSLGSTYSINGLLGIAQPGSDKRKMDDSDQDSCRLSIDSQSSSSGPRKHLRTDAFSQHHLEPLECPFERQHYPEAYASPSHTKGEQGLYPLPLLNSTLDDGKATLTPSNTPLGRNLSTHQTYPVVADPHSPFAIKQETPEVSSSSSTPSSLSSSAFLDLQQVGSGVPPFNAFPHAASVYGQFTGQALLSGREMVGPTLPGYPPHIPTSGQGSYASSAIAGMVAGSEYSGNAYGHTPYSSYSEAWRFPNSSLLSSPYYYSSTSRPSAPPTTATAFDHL

[1] = OVCAR8 cell viability loss – plate reader, dry powder samples, PAX8 project, dose response (AID 743197); assay type: functional, cell-based; conditions: OVCAR-8
[2] = OVCAR-3 cell viability loss – plate reader, dry powder samples, PAX8 inhibitor project, dose response (AID 743044); assay type: functional, cell-based
[3] = viability loss in LCL cells – cell-based, plate reader, dry powder, set 2, cytotoxicity control, dose response (AID 624367); assay type: functional
[4] = molecular target: T1, Nuclear receptor subfamily 0 group B member 1 (Homo sapiens, UniProt P51843); assay type: functional, cell-based;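 note: HEK293T cells transfected with SF-1 and DAX-1 plus StAR promoter luciferase reporter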
T1 sequence (P51843 whole entry): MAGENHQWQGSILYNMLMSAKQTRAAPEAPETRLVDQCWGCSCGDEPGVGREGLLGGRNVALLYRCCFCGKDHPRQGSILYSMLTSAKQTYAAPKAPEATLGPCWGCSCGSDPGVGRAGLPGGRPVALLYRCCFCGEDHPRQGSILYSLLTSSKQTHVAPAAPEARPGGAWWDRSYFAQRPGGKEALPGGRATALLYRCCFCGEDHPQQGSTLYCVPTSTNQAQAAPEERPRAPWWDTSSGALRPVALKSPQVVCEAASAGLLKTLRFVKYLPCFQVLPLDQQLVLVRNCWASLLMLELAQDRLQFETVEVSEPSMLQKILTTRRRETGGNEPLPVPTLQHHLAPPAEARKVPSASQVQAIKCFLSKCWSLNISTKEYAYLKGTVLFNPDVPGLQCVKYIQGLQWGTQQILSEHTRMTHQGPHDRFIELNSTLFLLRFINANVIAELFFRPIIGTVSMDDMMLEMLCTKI

cells [5] = assay type: functional, cell-based
cells [6] = assay type: functional, cell-based; remark: listed apart in the source
[7] = molecular target: T2, Trace amine-associated receptor 1 (Homo sapiens, UniProt Q96RJ0); experiment: Fluorescence-based cell-based high throughput dose response assay to identify agonists of the human trace amine associated receptor 1 (TAAR1).; assay type: functional
T2 sequence (Q96RJ0 whole entry): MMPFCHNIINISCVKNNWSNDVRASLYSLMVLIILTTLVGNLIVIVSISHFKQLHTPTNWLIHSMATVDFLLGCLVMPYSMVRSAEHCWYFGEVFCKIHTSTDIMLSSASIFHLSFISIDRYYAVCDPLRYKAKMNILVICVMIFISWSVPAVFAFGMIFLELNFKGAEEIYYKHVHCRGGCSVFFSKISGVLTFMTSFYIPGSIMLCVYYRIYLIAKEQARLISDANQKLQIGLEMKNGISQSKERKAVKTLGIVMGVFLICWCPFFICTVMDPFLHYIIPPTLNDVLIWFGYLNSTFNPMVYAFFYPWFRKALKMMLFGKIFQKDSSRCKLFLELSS

cells [8] = assay type: functional, cell-based; remark: listed apart in the source
[9] = molecular target: T2, Trace amine-associated receptor 1; experiment: Counterscreen for agonists of the human trace amine associated receptor 1 (hTAAR1): Fluorescence-based cell-based high throughput dose response assay to identify hTAAR1 agonist that also desensitize TAAR1 receptor response.; assay type: functional
Mu-type opioid receptor = Mu-type opioid receptor (Homo sapiens, UniProt P35372); assay type: functional, cell-based;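 note: U2OS cells with beta-arrestin recruitment to OPRM1 by beta-gal complementation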
[10] = molecular target: 5-hydroxytryptamine receptor 2A (Mus musculus, UniProt P35363); assay type: functional, cell-based;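 note: CHO-K1 cells with tagged receptor and beta-arrestin; agonist potency measured as compound-induced activation of the receptor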
Chain of 5-hydroxytryptamine receptor 2A (P35363 whole entry): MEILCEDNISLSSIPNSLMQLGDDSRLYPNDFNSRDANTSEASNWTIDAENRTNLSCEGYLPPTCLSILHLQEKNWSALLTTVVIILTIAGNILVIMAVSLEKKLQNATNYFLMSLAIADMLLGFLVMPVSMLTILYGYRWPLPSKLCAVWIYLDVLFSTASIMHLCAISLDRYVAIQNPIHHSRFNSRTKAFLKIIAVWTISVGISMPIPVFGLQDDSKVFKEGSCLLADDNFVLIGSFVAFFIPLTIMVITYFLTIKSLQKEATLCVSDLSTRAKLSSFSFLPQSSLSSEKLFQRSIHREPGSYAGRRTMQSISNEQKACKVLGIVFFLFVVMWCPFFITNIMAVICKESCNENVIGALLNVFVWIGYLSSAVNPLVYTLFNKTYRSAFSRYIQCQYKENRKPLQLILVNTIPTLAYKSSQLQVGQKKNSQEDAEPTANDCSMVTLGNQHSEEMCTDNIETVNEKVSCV

Beta Lactamase [11] = molecular target: T3, Beta Lactamase (Pseudomonas aeruginosa, UniProt Q932Y6); experiment: VIM-2 CCF2 hydrolysis inhibition, assay artifact filter – biochemical, FRET readout, CCF2 substrate, artefact control for selective VIM-2 inhibitor project, dose response (AID 1926)
T3 sequence (Q932Y6 whole entry): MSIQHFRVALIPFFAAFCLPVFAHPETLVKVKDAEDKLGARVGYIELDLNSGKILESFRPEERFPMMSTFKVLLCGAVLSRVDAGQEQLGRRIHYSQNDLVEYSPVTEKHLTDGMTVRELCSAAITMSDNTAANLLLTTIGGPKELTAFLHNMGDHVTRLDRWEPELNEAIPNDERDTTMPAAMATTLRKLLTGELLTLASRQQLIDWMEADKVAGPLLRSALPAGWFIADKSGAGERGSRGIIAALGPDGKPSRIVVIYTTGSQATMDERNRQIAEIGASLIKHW

Beta Lactamase [12] = molecular target: T3, Beta Lactamase; experiment: concentration-dependent VIM-2 enzyme inhibition – biochemical, epi-absorbance readout, selective inhibitors, dose response (AID 1919)
Beta-lactamase [13] = molecular target: T4, Beta-lactamase (Pseudomonas aeruginosa, UniProt Q79MP6); experiment: inhibition of IMP-1 beta-lactamase activity – biochemical, epi-absorbance, selectivity assay for VIM-2 inhibitor project, dose response (AID 1920)
T4 sequence (Q79MP6 whole entry): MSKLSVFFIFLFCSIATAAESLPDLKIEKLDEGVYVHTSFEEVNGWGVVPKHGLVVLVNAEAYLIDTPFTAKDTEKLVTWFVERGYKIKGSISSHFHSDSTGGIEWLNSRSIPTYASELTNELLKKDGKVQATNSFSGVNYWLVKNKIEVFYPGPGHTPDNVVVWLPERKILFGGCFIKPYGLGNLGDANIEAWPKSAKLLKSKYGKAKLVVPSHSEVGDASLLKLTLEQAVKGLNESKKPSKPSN

Beta-lactamase [14] = molecular target: Beta-lactamase (Salmonella choleraesuis (strain SC-B67), UniProt Q5J463); experiment: Epi-absorbance-based counterscreen for selective VIM-2 inhibitors: dose response biochemical high throughput screening assay to identify inhibitors of TEM-1 serine-beta-lactamase.
Chain of Beta-lactamase (Salmonella choleraesuis (strain SC-B67), UniProt Q5J463) (Q5J463 whole entry): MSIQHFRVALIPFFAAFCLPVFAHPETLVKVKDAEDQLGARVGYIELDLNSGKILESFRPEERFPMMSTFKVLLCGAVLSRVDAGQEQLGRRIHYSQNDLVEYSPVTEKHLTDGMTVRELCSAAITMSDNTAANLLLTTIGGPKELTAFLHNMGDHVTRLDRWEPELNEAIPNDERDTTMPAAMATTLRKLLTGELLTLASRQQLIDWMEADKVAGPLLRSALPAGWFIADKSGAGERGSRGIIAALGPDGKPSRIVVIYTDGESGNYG

Beta-lactamase [15] = molecular target: T4, Beta-lactamase; experiment: […] counterscreen for selective VIM-2 inhibitors: dose response biochemical high throughput screening assay to identify inhibitors of IMP-1 metallo-beta-lactamase.
[16] = cytotoxicity in HEK293 background cells – cell-based, dry powder, set 2, counter-screen for EBV LMP1 inhibitor project, dose response (AID 624374); assay type: functional
[17] = inhibitors of EBV LMP1 NF-kappaB signaling – cell-based, luciferase reporter, luminescence, dry powder, set 2, dose response (AID 624376); assay type: functional
[18] = blockers of bursicon-stimulated LGR2 cAMP reporter – cell-based, HEK293, CRE-luciferase reporter, cherry pick, set 2, dose response (AID 743343); assay type: functional;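 note: transfected cells were stimulated with diluted bursicon conditioned medium after compound addition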
[19] = molecular target: Photoreceptor-specific nuclear receptor (Homo sapiens, UniProt Q9Y5X4); assay type: functional, cell-based;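 note: CHO-S cells with Gal4-NCOR and VP16-NR2E3 two-hybrid luciferase reporter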
Chain of Photoreceptor-specific nuclear receptor (Q9Y5X4 whole entry, the tested form may be a part): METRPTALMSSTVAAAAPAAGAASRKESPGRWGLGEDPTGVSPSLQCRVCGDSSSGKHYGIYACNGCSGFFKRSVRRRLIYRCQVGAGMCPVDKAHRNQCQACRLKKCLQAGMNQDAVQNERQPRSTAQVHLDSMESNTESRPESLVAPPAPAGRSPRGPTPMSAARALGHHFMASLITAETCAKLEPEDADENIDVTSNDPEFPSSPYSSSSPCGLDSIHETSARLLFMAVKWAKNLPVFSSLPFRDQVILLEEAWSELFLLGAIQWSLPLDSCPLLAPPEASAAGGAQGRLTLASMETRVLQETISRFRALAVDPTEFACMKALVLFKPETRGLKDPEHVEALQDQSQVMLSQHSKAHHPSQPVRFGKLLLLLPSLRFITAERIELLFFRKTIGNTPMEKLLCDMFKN

[20] = A549 cell cytotoxicity, dose response, cytotoxicity control, plate reader, cherry-pick, antagonist series (AID 743412); assay type: functional, cell-based
[21] = toxicity toward HepG2 liver cells – cell-based, plate reader, cherry-pick, antagonist series, cytotoxicity control, dose response (AID 743416); assay type: functional
[22] = viability loss in HEK293 cells – cell-based, plate reader, cherry-picked samples, cytotoxicity control, dose response (AID 743446); assay type: functional
[23] = blockade of melanocortin 4 receptor signaling – cell-based, plate reader, cherry pick, counter-screen for LGR2 antagonist project, dose response (AID 743444); assay type: functional;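 note: transfected HEK 293 cells stimulated with alpha-MSH peptide; potency of inhibitors of the alpha-MSH evoked signal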
A549 = experiment: viability loss in A549 cells – cell-based, plate reader, cherry-pick samples, cytotoxicity control, dose response (AID 687028); assay type: functional; conditions: Homo sapiens
[24] = blockers of HIV-1 envelope-mediated cell-cell fusion – cherry-pick, dose response (AID 652057); assay type: functional, cell-based
[25] = HIV-1 AD8 envelope cell-cell fusion blockers – cherry-pick, dose response (AID 652062); assay type: functional, cell-based;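 note: luciferase signal from cell-cell fusion driven by HIV-1 clade B AD8 Env; potency is for inhibitors of fusion seen as a drop in luminescence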
[26] = viability loss in CEM21 cells – cell-based, CellTiter-Glo luminescence, cherry-picked, cytotoxicity control for viral fusion inhibitor project, dose response (AID 652042); assay type: functional;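 note: potency for signal decrease meaning cytotoxicity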
H4 = experiment: Luminescence Cell-Based Dose Response HTS to Identify Activators of 5'UTR Stem-Loop Driven Prion Protein mRNA Translation in H4 Neuroglioblastoma Cells. [Related pubchem assays: 1829 (Project Summary), 1814 (Primary HTS)]; assay type: functional; conditions: Homo sapiens
Prothrombin = Prothrombin (Homo sapiens, UniProt P00734); experiment: Thrombin 1536 HTS Dose Response Confirmation. [Related pubchem assays: 1046 (Thrombin 1536 HTS; hits were confirmed in this assay)]; assay type: functional
[27] = Counterscreen for activators of the function of SWI/SNF related, matrix associated, actin dependent regulator of chromatin, subfamily a, member 2 (SMARCA2, BRM): Luminescence-based cell-based high throughput dose response assay to identify non-selective compounds using the VP16 reporter assay.; assay type: functional
[28] = Luminescence Cell-Based Dose Response HTS to Identify Activators of Luciferase Translation or Activity in H4 […] Cells. [Related pubchem assays: 1829 (Project Summary), 1814 (Primary HTS)]; assay type: functional
[29] = Luminescence Cell-Based Dose Confirmation HTS to Identify Activators of 5'UTR Stem-Loop Driven Alpha-Synuclein mRNA Translation in H4 Neuroglioblastoma Cells. [Related pubchem assays: 1829 (Project Summary), 1814 (Primary HTS)]; assay type: functional
[30] = molecular target: SWI/SNF-related matrix-associated actin-dependent regulator of chromatin subfamily A member 2 (Homo sapiens, UniProt P51531); experiment: Luminescence-based cell-based high throughput dose response assay to identify activators of the function of SWI/SNF related, matrix associated, actin dependent regulator of chromatin, subfamily a, member 2 (SMARCA2, BRM).; assay type: functional
Chain of SWI/SNF-related matrix-associated actin-dependent regulator of chromatin subfamily A member 2 (P51531 whole entry): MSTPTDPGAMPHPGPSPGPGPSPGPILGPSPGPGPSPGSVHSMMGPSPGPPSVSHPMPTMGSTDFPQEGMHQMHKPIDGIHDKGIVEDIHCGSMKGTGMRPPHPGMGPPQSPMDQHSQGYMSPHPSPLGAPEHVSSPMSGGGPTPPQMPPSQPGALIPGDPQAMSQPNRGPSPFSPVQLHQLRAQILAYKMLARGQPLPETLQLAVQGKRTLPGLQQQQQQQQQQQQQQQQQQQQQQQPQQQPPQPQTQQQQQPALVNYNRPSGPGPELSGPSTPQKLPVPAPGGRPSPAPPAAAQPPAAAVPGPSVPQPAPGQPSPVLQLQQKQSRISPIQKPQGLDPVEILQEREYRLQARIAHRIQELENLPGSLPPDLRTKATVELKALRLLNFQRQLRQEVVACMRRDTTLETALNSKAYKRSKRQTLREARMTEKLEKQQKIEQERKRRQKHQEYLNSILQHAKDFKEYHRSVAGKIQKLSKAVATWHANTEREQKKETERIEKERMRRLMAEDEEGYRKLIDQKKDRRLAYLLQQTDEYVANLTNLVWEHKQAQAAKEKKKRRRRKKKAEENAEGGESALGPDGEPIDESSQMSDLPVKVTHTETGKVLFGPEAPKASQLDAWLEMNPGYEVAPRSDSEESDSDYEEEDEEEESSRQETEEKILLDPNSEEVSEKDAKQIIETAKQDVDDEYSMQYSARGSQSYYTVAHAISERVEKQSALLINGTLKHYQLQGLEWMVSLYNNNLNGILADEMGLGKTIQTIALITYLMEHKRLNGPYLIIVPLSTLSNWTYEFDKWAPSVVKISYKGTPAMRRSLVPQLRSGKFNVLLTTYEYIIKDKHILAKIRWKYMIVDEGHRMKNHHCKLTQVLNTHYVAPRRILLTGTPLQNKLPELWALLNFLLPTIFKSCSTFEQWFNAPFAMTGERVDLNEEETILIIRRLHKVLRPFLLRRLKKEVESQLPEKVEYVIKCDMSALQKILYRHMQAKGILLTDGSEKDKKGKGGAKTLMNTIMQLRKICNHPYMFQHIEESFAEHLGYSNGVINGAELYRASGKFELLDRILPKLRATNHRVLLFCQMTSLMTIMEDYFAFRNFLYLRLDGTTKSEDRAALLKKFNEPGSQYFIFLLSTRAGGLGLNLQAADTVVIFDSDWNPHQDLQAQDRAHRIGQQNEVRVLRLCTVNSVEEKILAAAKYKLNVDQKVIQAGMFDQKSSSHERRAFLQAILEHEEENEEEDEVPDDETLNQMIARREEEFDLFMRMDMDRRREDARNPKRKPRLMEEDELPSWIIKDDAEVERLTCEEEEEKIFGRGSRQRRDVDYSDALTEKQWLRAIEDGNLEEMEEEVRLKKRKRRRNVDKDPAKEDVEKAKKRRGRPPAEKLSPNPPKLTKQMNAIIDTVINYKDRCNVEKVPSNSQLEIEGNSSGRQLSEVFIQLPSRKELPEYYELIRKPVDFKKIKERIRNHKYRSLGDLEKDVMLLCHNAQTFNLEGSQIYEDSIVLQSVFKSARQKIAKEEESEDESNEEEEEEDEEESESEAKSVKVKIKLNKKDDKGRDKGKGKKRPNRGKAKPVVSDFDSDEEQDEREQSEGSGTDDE

[31] = tested on: Streptococcus sp. 'group A'; experiment: Streptococcus pyogenes SK(-)GAS viability under kanamycin – luminescence, BacTiterGlo, confirmation, counter-screen for streptokinase expression inhibitor project, dose response (AID 1900); assay type: functional, organism-based
Streptokinase A = molecular target: T5, Streptokinase A (Streptococcus pyogenes serotype M1, UniProt P10520); experiment: viability-normalized secreted streptokinase activity reduction – plasminogen activation absorbance, OD405, dose response (AID 1914); assay type: functional, Streptococcus pyogenes M1 GAS;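 note: secreted streptokinase activity via plasminogen activation per viability signal from cell pellet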
T5 sequence (P10520 whole entry): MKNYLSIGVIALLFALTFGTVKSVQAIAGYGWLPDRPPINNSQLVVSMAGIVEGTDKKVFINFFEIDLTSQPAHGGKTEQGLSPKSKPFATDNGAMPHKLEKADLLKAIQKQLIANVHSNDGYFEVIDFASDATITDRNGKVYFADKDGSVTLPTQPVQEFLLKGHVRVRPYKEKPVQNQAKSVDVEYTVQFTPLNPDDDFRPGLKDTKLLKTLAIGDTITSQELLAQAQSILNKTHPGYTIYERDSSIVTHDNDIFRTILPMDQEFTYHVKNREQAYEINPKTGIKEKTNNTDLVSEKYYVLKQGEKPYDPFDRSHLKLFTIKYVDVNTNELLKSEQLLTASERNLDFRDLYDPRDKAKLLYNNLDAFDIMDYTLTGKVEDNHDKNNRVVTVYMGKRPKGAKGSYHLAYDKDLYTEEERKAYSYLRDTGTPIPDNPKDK

[32] = viability loss in HEK293T cells – cell-based, cherry-picks, cytotoxicity control for HIV Vif inhibitor project, dose response (AID 652208); assay type: functional
Streptococcus = experiment: GAS UMAA2166 growth inhibition – luminescence, BacTiterGlo, counter-screen for streptokinase expression inhibitor project, dose response (AID 1915); assay type: functional, organism-based;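 note: potency for reduction of bacterial viability or growth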
Galanin receptor type 3 = Galanin receptor type 3 (Homo sapiens, UniProt O60755); experiment: Fluorescence-based cell-based primary high throughput dose response assay to identify antagonists of the Galanin Receptor 3 (GalR3).; assay type: functional
Chain of Galanin receptor type 3 (O60755 whole entry): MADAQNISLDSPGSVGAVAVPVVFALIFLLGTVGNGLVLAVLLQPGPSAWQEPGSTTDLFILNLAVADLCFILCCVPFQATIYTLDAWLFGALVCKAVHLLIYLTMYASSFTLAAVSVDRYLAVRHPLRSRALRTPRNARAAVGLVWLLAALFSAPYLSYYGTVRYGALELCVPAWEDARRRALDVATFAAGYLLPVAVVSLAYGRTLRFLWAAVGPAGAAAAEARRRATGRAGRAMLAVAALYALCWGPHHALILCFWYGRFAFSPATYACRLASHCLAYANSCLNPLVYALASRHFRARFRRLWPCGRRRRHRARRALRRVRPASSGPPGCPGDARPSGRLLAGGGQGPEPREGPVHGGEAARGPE

cells [33] = assay type: functional, cell-based; conditions: HEK-CNG

Chain of Protein Wnt-3a (P27467 whole entry): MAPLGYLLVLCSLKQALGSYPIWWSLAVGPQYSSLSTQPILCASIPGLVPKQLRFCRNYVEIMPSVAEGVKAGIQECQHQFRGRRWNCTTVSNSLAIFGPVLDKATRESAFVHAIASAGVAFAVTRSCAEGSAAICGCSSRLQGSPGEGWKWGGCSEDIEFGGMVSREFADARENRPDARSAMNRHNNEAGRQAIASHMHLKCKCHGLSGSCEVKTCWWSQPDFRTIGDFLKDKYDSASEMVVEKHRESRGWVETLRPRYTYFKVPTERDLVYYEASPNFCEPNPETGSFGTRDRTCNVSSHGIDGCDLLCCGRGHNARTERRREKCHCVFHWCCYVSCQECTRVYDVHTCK

**Q.** For `O=C(Nc1cc(N2CCCC2)ncn1)c1ccccc1`, which IC50 (Protein Wnt-3a) is on record?
**A.** > 21.8 µM (inactive)

**Q.** For `O=C(Nc1ccc(C(F)(F)F)cc1)Nc1ccc2c(c1)[C@H]1C[C@@H](CC(=O)N3CCc4ccccc4C3)O[C@@H](CO)[C@H]1O2`, which AC50 (Paired box protein Pax-8) is on record?
**A.** 10.7 µM (active)

**Q.** And the AC50 [1]?
**A.** > 70 µM (inactive)

**Q.** And the AC50 [2]?
**A.** 63.1 µM (active)

**Q.** And the AbsAC35 [3]?
**A.** 44.28 µM

**Q.** What does the source list for `CC(=O)c1sc(Nc2ccc(Oc3ccccc3)cc2)nc1C`?
**A.** IC50 [4]: > 67.6 µM (inactive); IC50 (cells [5]): > 67.6 µM (inactive)

**Q.** For `COc1cc(C)c(NC(=O)C(S)=NCCc2ccccc2)cc1C`, which IC50 (cells [6]) is on record?
**A.** > 29.9 µM (inactive)

**Q.** What about the EC50 [7] of the same compound?
**A.** 766 nM (active)

**Q.** And the EC50 (cells [8])?
**A.** > 29.9 µM (inactive)

**Q.** What about the IC50 [9] of the same compound?
**A.** 2.38 µM (active)

**Q.** Which EC50 (Mu-type opioid receptor) does the source give for `Clc1ccccc1CN1CCN(c2ncccn2)CC1` here?
**A.** 92.5 µM (inactive)

**Q.** And the EC50 [10]?
**A.** 407 nM (active)

**Q.** Which results are given for `COc1ccc(OC)c(C2C(C(=O)c3ccco3)=C(O)C(=O)N2Cc2cccnc2)c1` (stereo not given)?
**A.** IC50 (Beta Lactamase [11]): 700 nM (active); IC50 (Beta Lactamase [12]): 1.94 µM (active); IC50 (Beta-lactamase [13]): > 59.6 µM (inactive); IC50 (Beta-lactamase [14]): > 59.6 µM (inactive); IC50 (Beta-lactamase [15]): > 59.6 µM (inactive)

**Q.** For `C[C@H](CO)N1C[C@H](C)[C@@H](CN(C)S(=O)(=O)c2cccc(F)c2)Oc2ncc(C#CC3CCCCC3)cc2C1=O`, which AbsAC35 [16] is on record?
**A.** 324.37 µM

**Q.** What about the AbsAC35 [17] of the same compound?
**A.** 44.29 µM

**Q.** Which results are given for `Cc1cnc(NC(=O)C2CC(=O)N(c3cccc(Cl)c3)C2)s1` (stereo not given)?
**A.** AC50 [18]: 4.8 µM (active); IC50 [19]: 75.7 nM (active); AC50 [20]: 4.65 µM (active); AC50 [21]: 763 nM (active); AC50 [22]: > 52 µM (inactive); AC50 [23]: 5.08 µM (active); AC50 (A549): 14.8 µM (active)

**Q.** What does the source list for `COc1ccc2c3c([nH]c2c1)[C@H](CO)N(C(=O)Nc1cccc(F)c1)CC31CN(S(=O)(=O)c2cccc(C)c2)C1`?
**A.** AC50 [24]: 27.7 µM (active); AC50 [25]: 38.1 µM (active); AC50 [26]: 27.5 µM (active)

**Q.** Which results are given for `OCCCCCN=c1cc(-c2ccccc2)oc2ccc(Cl)cc12`?
**A.** EC50 (H4): 15.2 µM (active); IC50 (Prothrombin): 3.04 µM (active); EC50 [27]: > 10.1 µM (inactive); EC50 [28]: 8.23 µM (active); EC50 [29]: 14.4 µM (active); EC50 [30]: > 10.1 µM (inactive)

**Q.** What does the source list for `O=C1Nc2ccccc2S/C1=C/Nc1cccc(Cl)c1`?
**A.** EC50 (H4): > 120 µM (not active); EC50 [28]: 32.5 µM (active); EC50 [31]: 17.9 µM (active); EC50 (Streptokinase A): > 150 µM (not active); EC50 [29]: > 120 µM (not active); AC50 [32]: > 52 µM (inactive); EC50 (Streptococcus): 6.87 µM (active)

**Q.** What does the source list for `CCCCCC(O)C=CC1C(O)CC(O)C1CC=CCCCC(=O)O` (stereo not given)?
**A.** IC50 (Galanin receptor type 3): > 123 nM (active); EC50 (cells [33]): > 29.9 µM (inactive)
